Laboratory results reported in patent US10726554B2, “Information processing apparatus, information processing system, and information processing method” (Sony Corporation, priority 2015, dated 2020).

Columns and labels:
Assay type in all cases: cell-based
U2OS cells [1] = test: Change in motion speed by microtubule disruption (phase contrast imaging, motion vector analysis); settings: 2 micro M, imaging time 20 minutes; for motion area in color map of motion speed: versus comparative cell (FIGS. 20, 22, 24); for relative motion area (proportion of the motion area to the cell area): versus comparative cell to which nothing is administered (FIG. 25)
Experimental: Images (moving image) of U2OS cells cultured on different conditions were captured with a phase contrast microscope. Three types of cells, i.e., a cell to which Paclitaxel of 2 micro M is administered, a cell to which Nocodazole of 2 micro M is administered, and a comparative cell to which nothing is administered, were prepared. The Paclitaxel stabilizes a microtubule. The Nocodazole destabilizes a microtubule. The magnification power of the microscope was 20×, the imaging interval was 5 frames per second, and the imaging time was 20 minutes. After motion vectors were calculated at intervals of approximately 1 micrometer, a spatiotemporal average of the motion amount per unit time (motion speed) of each coordinate was calculated, to create a color map. Further, on the basis of the proportion of the cell within the captured image, a cell area and a motion area indicating a motion speed larger than a predetermined motion speed were calculated, and a relative motion area indicating a proportion of the motion area to the cell area was specified, to create a graph.
FIG. 19 is a phase-contrast image of a comparative cell to which nothing is administered, and FIG. 20 is a color map of the comparative cell. FIG. 21 is a phase-contrast image of a cell to which Paclitaxel is administered, and FIG. 22 is a color map of the cell. FIG. 23 is a phase-contrast image of a cell to which Nocodazole is administered, and FIG. 24 is a color map of the cell. FIG. 25 is a graph of a relative motion area for the cells cultured on those three conditions.

U2OS cells [2] = test: Change in motion speed by metabolic inhibition with mitochondrial uncoupler (phase contrast imaging, relative motion area); settings: U2OS cells, 0.5, 5 and 50 micro M, imaging time 20 minutes, versus comparative cell (FIG. 26)
Experimental: Images (moving image) of U2OS cells cultured at different medicine concentrations were captured with a phase contrast microscope. A medicine was CCCP, which is a mitochondrial uncoupler used as a metabolic inhibitor. Three types of cells respectively having medicine concentrations of 0.5, 5, and 50 micro M and a comparative cell to which nothing is administered were prepared. The magnification power of the microscope was 20×, the imaging interval was 5 frames per second, and the imaging time was 20 minutes. After motion vectors were calculated at intervals of approximately 1 micrometer, a relative motion area was calculated to create a graph.
FIG. 26 is a graph of a relative motion area for the cells cultured at different medicine concentrations.

U2OS cells [3] = test: Change in motion speed by motor protein inhibitor (phase contrast imaging, average motion speed); settings: imaging time 60 minutes
Experimental: Images (moving image) of U2OS cells cultured at different medicine concentrations were captured with a phase contrast microscope. […] For the AMP-PNP, three types of cells respectively having medicine concentrations of 67, 200, and 670 micro M and a comparative cell to which nothing is administered were prepared. For the ATA, three types of cells respectively having medicine concentrations of 10, 30, and 100 micro M and a comparative cell to which nothing is administered were prepared. The magnification power of the microscope was 20×, the imaging interval was 5 frames per second, and the imaging time was 60 minutes. After motion vectors were calculated at intervals of approximately 1 micrometer, an average of the motion amount per unit time (motion speed) was calculated, to create a graph.
FIG. 27 is a graph of a motion speed for the cells to which AMP-PNP is administered at different medicine concentrations. FIG. 28 is a graph of a motion speed for the cells to which ATA is administered at different medicine concentrations.

COC(=O)Nc1nc2ccc(C(=O)c3cccs3)cc2[nH]1 [Nocodazole]
motion area in color map of motion speed (U2OS cells [1]): the motion area obviously shrinks in the color map
relative motion area (proportion of the motion area to the cell area) (U2OS cells [1]): the value of the relative motion area decreases

N#CC(C#N)=NNc1cccc(Cl)c1 [CCCP]
relative motion area (U2OS cells [2]): the value of the relative motion area decreases in accordance with an increase of the concentration of CCCP

O=C(O)C1=CC(=C(c2ccc(O)c(C(=O)O)c2)c2ccc(O)c(C(=O)O)c2)C=CC1=O [ATA]
motion speed (average of the motion amount per unit time) (U2OS cells [3]; U2OS cells, 10, 30 and 100 micro M, versus comparative cell (FIG. 28)): the value of the motion speed decreases in accordance with an increase of the medicine concentration

Nc1ncnc2c1ncn2[C@@H]1O[C@H](COP(=O)(O)OP(=O)(O)NP(=O)(O)O)[C@@H](O)[C@H]1O [AMP-PNP]
motion speed (average of the motion amount per unit time) (U2OS cells [3]; U2OS cells, 67, 200 and 670 micro M, versus comparative cell (FIG. 27)): the value of the motion speed decreases in accordance with an increase of the medicine concentration

CC(=O)O[C@H]1C(=O)[C@@]2(C)[C@H]([C@H](OC(=O)c3ccccc3)[C@]3(O)C[C@H](OC(=O)[C@H](O)[C@@H](NC(=O)c4ccccc4)c4ccccc4)C(C)=C1C3(C)C)[C@]1(OC(C)=O)CO[C@@H]1C[C@@H]2O [Paclitaxel]
motion area in color map of motion speed (U2OS cells [1]): do not have difference in color map
relative motion area (proportion of the motion area to the cell area) (U2OS cells [1]): do not have difference in color map and in value of the relative motion area
